Measurements reported in ChEMBL document CHEMBL1177694, “Multivalent catanionic GalCer analogs derived from first generation dendrimeric phosphonic acids” (Bioorg Med Chem, 2010).

Key:
[1] = test system: Human immunodeficiency virus 1; assay: Antiviral activity against HIV1 LAI infected in human CEM-SS cells assessed as inhibition of viral replication after 5 days by MTT assay; assay type: functional, organism-based; conditions: Human immunodeficiency virus 1, LAI, 120 h
[2] = Cytotoxicity against human CEM-SS cells after 5 days by MTT assay; assay type: cell-based
[3] = Therapeutic index, ratio of CC50 for human CEM-SS cells to IC50 for HIV1 LAI infected in human CEM-SS cells; assay type: cell-based; conditions: CEM-SS cells (uninfected and infected with HIV1 LAI), read-out: Ratio CC50/IC50

| Compound | IC50 [1] [µM] | CC50 at 120 h [2] [µM] | selectivity ratio [3] |
| --- | --- | --- | --- |
| CCCCCCCCCCC(C(=O)NCCc1ccc(OP(=S)(Oc2ccc(CCNC(=O)C(CCCCCCCCCC)P(=O)(O)O)cc2)N(C)/N=C/c2ccc(OP3(Oc4ccc(/C=N/N(C)P(=S)(Oc5ccc(CCNC(=O)C(CCCCCCCCCC)P(=O)(O)O)cc5)Oc5ccc(CCNC(=O)C(CCCCCCCCCC)P(=O)(O)O)cc5)cc4)=NP(Oc4ccc(/C=N/N(C)P(=S)(Oc5ccc(CCNC(=O)C(CCCCCCCCCC)P(=O)(O)O)cc5)Oc5ccc(CCNC(=O)C(CCCCCCCCCC)P(=O)(O)O)cc5)cc4)(Oc4ccc(/C=N/N(C)P(=S)(Oc5ccc(CCNC(=O)C(CCCCCCCCCC)P(=O)(O)O)cc5)Oc5ccc(CCNC(=O)C(CCCCCCCCCC)P(=O)(O)O)cc5)cc4)=NP(Oc4ccc(/C=N/N(C)P(=S)(Oc5ccc(CCNC(=O)C(CCCCCCCCCC)P(=O)(O)O)cc5)Oc5ccc(CCNC(=O)C(CCCCCCCCCC)P(=O)(O)O)cc5)cc4)(Oc4ccc(/C=N/N(C)P(=S)(Oc5ccc(CCNC(=O)C(CCCCCCCCCC)P(=O)(O)O)cc5)Oc5ccc(CCNC(=O)C(CCCCCCCCCC)P(=O)(O)O)cc5)cc4)=N3)cc2)cc1)P(=O)(O)O (centres undefined) | 16 | > 100 | > 6 |
| CCCC(C(=O)NCCc1ccc(OP(=S)(Oc2ccc(CCNC(=O)C(CCC)P(=O)(O)O)cc2)N(C)/N=C/c2ccc(OP3(Oc4ccc(/C=N/N(C)P(=S)(Oc5ccc(CCNC(=O)C(CCC)P(=O)(O)O)cc5)Oc5ccc(CCNC(=O)C(CCC)P(=O)(O)O)cc5)cc4)=NP(Oc4ccc(/C=N/N(C)P(=S)(Oc5ccc(CCNC(=O)C(CCC)P(=O)(O)O)cc5)Oc5ccc(CCNC(=O)C(CCC)P(=O)(O)O)cc5)cc4)(Oc4ccc(/C=N/N(C)P(=S)(Oc5ccc(CCNC(=O)C(CCC)P(=O)(O)O)cc5)Oc5ccc(CCNC(=O)C(CCC)P(=O)(O)O)cc5)cc4)=NP(Oc4ccc(/C=N/N(C)P(=S)(Oc5ccc(CCNC(=O)C(CCC)P(=O)(O)O)cc5)Oc5ccc(CCNC(=O)C(CCC)P(=O)(O)O)cc5)cc4)(Oc4ccc(/C=N/N(C)P(=S)(Oc5ccc(CCNC(=O)C(CCC)P(=O)(O)O)cc5)Oc5ccc(CCNC(=O)C(CCC)P(=O)(O)O)cc5)cc4)=N3)cc2)cc1)P(=O)(O)O.CCCCCCCCCCCCCCCCNOC(CO)C(O)C(OC1OC(CO)C(O)C(O)C1O)C(O)CO.CCCCCCCCCCCCCCCCNOC(CO)C(O)C(OC1OC(CO)C(O)C(O)C1O)C(O)CO.CCCCCCCCCCCCCCCCNOC(CO)C(O)C(OC1OC(CO)C(O)C(O)C1O)C(O)CO.CCCCCCCCCCCCCCCCNOC(CO)C(O)C(OC1OC(CO)C(O)C(O)C1O)C(O)CO.CCCCCCCCCCCCCCCCNOC(CO)C(O)C(OC1OC(CO)C(O)C(O)C1O)C(O)CO.CCCCCCCCCCCCCCCCNOC(CO)C(O)C(OC1OC(CO)C(O)C(O)C1O)C(O)CO (centres undefined) | 0.33 | 1.5 | 4.5 |
| CN(/N=C/c1ccc(OP2(Oc3ccc(/C=N/N(C)P(=S)(Oc4ccc(C(O)P(=O)(O)O)cc4)Oc4ccc(C(O)P(=O)(O)O)cc4)cc3)=NP(Oc3ccc(/C=N/N(C)P(=S)(Oc4ccc(C(O)P(=O)(O)O)cc4)Oc4ccc(C(O)P(=O)(O)O)cc4)cc3)(Oc3ccc(/C=N/N(C)P(=S)(Oc4ccc(C(O)P(=O)(O)O)cc4)Oc4ccc(C(O)P(=O)(O)O)cc4)cc3)=NP(Oc3ccc(/C=N/N(C)P(=S)(Oc4ccc(C(O)P(=O)(O)O)cc4)Oc4ccc(C(O)P(=O)(O)O)cc4)cc3)(Oc3ccc(/C=N/N(C)P(=S)(Oc4ccc(C(O)P(=O)(O)O)cc4)Oc4ccc(C(O)P(=O)(O)O)cc4)cc3)=N2)cc1)P(=S)(Oc1ccc(C(O)P(=O)(O)O)cc1)Oc1ccc(C(O)P(=O)(O)O)cc1 (centres undefined) | 50 | > 100 | > 2 |
